# Test results reported in patent US6737383B1, “Herbicidal oxadiazolidines” (priority 1999, dated 2004).
# Key:
# bedstraw = experiment: Test B pre/postemergence bedstraw; format: in vivo, Galium aparine; conditions: for Plant response rating, Bedstraw: Rate 62 g/ha, scale of 0 to 10 where 0 is no effect and 10 is complete control
# Procedure, shortened: (§1)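 Test chemicals in a non-phytotoxic solvent mixture with surfactant were sprayed preemergence onto planted seeds and postemergence onto plants 2 to 18 cm tall (1- to 4-leaf stage). After twelve to sixteen days in a greenhouse, injury was visually rated against untreated controls from 0 (no effect) to 10 (complete control).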
# blackgrass = experiment: Test B pre/postemergence blackgrass; format: in vivo, Alopecurus myosuroides
# Procedure, shortened: as §1
# surinam grass = experiment: Test B pre/postemergence surinam grass; format: in vivo, Brachiaria decumbens
# Procedure, shortened: as §1
# cocklebur = experiment: Test B pre/postemergence cocklebur; format: in vivo, Xanthium strumarium
# Procedure, shortened: as §1
# corn = experiment: Test B pre/postemergence corn; format: in vivo, Zea mays
# Procedure, shortened: as §1
# crabgrass = experiment: Test B pre/postemergence crabgrass; format: in vivo, Digitaria sanguinalis
# Procedure, shortened: as §1
# giant foxtail = experiment: Test B pre/postemergence giant foxtail; format: in vivo, Setaria faberii
# Procedure, shortened: as §1
# morningglory = experiment: Test B pre/postemergence morningglory; format: in vivo, Ipomoea hederacea
# Procedure, shortened: as §1
# pigweed = experiment: Test B pre/postemergence pigweed; format: in vivo, Amaranthus retroflexus
# Procedure, shortened: as §1
# rape = experiment: Test B pre/postemergence rape; format: in vivo, Brassica napus
# Procedure, shortened: as §1
# soybean = experiment: Test B pre/postemergence soybean; format: in vivo, Glycine max
# Procedure, shortened: as §1
# sugar beet = experiment: Test B pre/postemergence sugar beet; format: in vivo, Beta vulgaris
# Procedure, shortened: as §1
# velvetleaf = experiment: Test B pre/postemergence velvetleaf; format: in vivo, Abutilon theophrasti
# Procedure, shortened: as §1
# wheat = experiment: Test B pre/postemergence wheat; format: in vivo, Triticum aestivum
# Procedure, shortened: as §1
# wild oat = experiment: Test B pre/postemergence wild oat; format: in vivo, Avena fatua
# Procedure, shortened: as §1
# purple nutsedge = experiment: Test B pre/postemergence purple nutsedge; format: in vivo, Cyperus rotundus
# Procedure, shortened: as §1
# [1] = Postemergence, Rate 125 g/ha, scale 0 to 10, 0 is no effect, 10 is complete control
# [2] = Postemergence, Rate 250 g/ha, scale 0 to 10
# [3] = Preemergence, Rate 125 g/ha, scale 0 to 10, 0 is no effect, 10 is complete control
# [4] = Preemergence, Rate 250 g/ha, scale 0 to 10, 0 is no effect, 10 is complete control
# [5] = Preemergence, Rate 500 g/ha, scale 0 to 10, 0 is no effect, 10 is complete control
# [6] = Postemergence, Rate 62 g/ha, scale of 0 to 10, 0 is no effect, 10 is complete control
# [7] = Postemergence, Rate 500 g/ha, scale 0 to 10, 0 is no effect, 10 is complete control
# [8] = Preemergence, Rate 62 g/ha, scale of 0 to 10 where 0 is no effect and 10 is complete control
# [9] = Preemergence, Rate 500 g/ha, scale of 0 to 10 where 0 is no effect and 10 is complete control
smiles,measurement,setting,value
CC(C)N(C(=O)n1oc(=O)n(CCCF)c1=O)c1ccc(F)cc1F [Compound 500],Bedstraw plant response rating,bedstraw; [1],9
same,Bedstraw plant response rating,bedstraw; [2],9
same,"Plant response rating, Bedstraw",bedstraw; Preemergence,8
same,Bedstraw plant response rating,bedstraw; [3],9
same,Bedstraw plant response rating,bedstraw; [4],9
same,Bedstraw plant response rating,bedstraw; [5],10
same,Blackgrass plant response rating,blackgrass; [6],3
same,Blackgrass plant response rating,blackgrass; [1],4
same,Blackgrass plant response rating,blackgrass; [2],6
same,"Plant response rating, Blackgrass",blackgrass; [7],6
same,"Plant response rating, Blackgrass",blackgrass; [8],9
same,Blackgrass plant response rating,blackgrass; [3],9
same,Blackgrass plant response rating,blackgrass; [4],10
same,Blackgrass plant response rating,blackgrass; [9],10
same,B. signalgrass plant response rating,surinam grass; [6],3
same,B. signalgrass plant response rating,surinam grass; [1],5
same,B. signalgrass plant response rating,"surinam grass; Postemergence, Rate 250 g/ha, scale 0 to 10, 0 no effect, 10 complete control",7
same,"Plant response rating, B. signalgrass",surinam grass; [7],8
same,"Plant response rating, B. signalgrass",surinam grass; [8],9
same,B. signalgrass plant response rating,surinam grass; [3],9
same,B. signalgrass plant response rating,surinam grass; [4],9
same,B. signalgrass plant response rating,surinam grass; [5],10
same,Cocklebur plant response rating,cocklebur; [6],3
same,Cocklebur plant response rating,cocklebur; [1],3
same,Cocklebur plant response rating,cocklebur; [2],3
same,"Plant response rating, Cocklebur",cocklebur; [7],5
same,"Plant response rating, Cocklebur",cocklebur; [8],0
same,Cocklebur plant response rating,cocklebur; [3],0
same,Cocklebur plant response rating,cocklebur; [4],2
same,Cocklebur plant response rating,cocklebur; [9],2
same,Corn plant response rating,corn; [6],2
same,Corn plant response rating,corn; [1],2
same,Corn plant response rating,corn; [2],2
same,"Plant response rating, Corn",corn; [7],6
same,"Plant response rating, Corn",corn; [8],0
same,Corn plant response rating,corn; [3],5
same,Corn plant response rating,corn; [9],8
same,Crabgrass plant response rating,crabgrass; [6],6
same,Crabgrass plant response rating,crabgrass; [1],9
same,Crabgrass plant response rating,crabgrass; [2],8
same,"Plant response rating, Crabgrass",crabgrass; [7],9
same,"Plant response rating, Crabgrass",crabgrass; [8],7
same,Crabgrass plant response rating,crabgrass; [3],9
same,Crabgrass plant response rating,crabgrass; [9],10
same,Giant foxtail plant response rating,giant foxtail; [6],7
same,Giant foxtail plant response rating,giant foxtail; [1],8
same,"Plant response rating, Giant foxtail",giant foxtail; [7],9
same,"Plant response rating, Giant foxtail",giant foxtail; [8],9
same,Giant foxtail plant response rating,giant foxtail; [3],10
same,Giant foxtail plant response rating,giant foxtail; [9],10
same,Morningglory plant response rating,morningglory; [6],3
same,Morningglory plant response rating,morningglory; [1],3
same,"Plant response rating, Morningglory",morningglory; [7],3
same,"Plant response rating, Morningglory",morningglory; [8],0
same,Morningglory plant response rating,morningglory; [3],5
same,Morningglory plant response rating,morningglory; [9],9
same,Redroot pigweed plant response rating,pigweed; [6],7
same,Redroot pigweed plant response rating,pigweed; [1],9
same,"Plant response rating, Redroot pigweed",pigweed; [7],10
same,"Plant response rating, Redroot pigweed",pigweed; [8],10
same,Redroot pigweed plant response rating,pigweed; [3],10
same,Redroot pigweed plant response rating,pigweed; [9],10
same,Rape plant response rating,rape; [6],3
same,Rape plant response rating,rape; [1],3
same,"Plant response rating, Rape",rape; [7],8
same,"Plant response rating, Rape",rape; [8],9
same,Rape plant response rating,rape; [3],10
same,Rape plant response rating,rape; [9],10
same,Soybean plant response rating,soybean; [6],3
same,Soybean plant response rating,soybean; [1],4
same,"Plant response rating, Soybean",soybean; [7],4
same,"Plant response rating, Soybean",soybean; [8],0
same,Soybean plant response rating,soybean; [3],3
same,Soybean plant response rating,soybean; [9],8
same,Sugarbeets plant response rating,sugar beet; [6],6
same,Sugarbeets plant response rating,sugar beet; [1],6
same,"Plant response rating, Sugarbeets",sugar beet; [7],9
same,"Plant response rating, Sugarbeets",sugar beet; [8],9
same,Sugarbeets plant response rating,sugar beet; [3],10
same,Sugarbeets plant response rating,sugar beet; [9],10
same,Velvetleaf plant response rating,velvetleaf; [6],4
same,Velvetleaf plant response rating,velvetleaf; [1],4
same,"Plant response rating, Velvetleaf",velvetleaf; [7],5
same,"Plant response rating, Velvetleaf",velvetleaf; [8],5
same,Velvetleaf plant response rating,velvetleaf; [3],8
same,Velvetleaf plant response rating,velvetleaf; [9],10
same,Wheat plant response rating,wheat; [6],0
same,"Plant response rating, Wheat",wheat; [7],5
same,"Plant response rating, Wheat",wheat; [8],2
same,Wheat plant response rating,wheat; [3],6
same,Wheat plant response rating,wheat; [9],8
same,Wild oats plant response rating,wild oat; [6],0
same,Wild oats plant response rating,wild oat; [1],0
same,"Plant response rating, Wild oats",wild oat; [7],7
same,"Plant response rating, Wild oats",wild oat; [8],7
same,Wild oats plant response rating,wild oat; [3],9
same,Wild oats plant response rating,wild oat; [9],10
same,Nutsedge plant response rating,purple nutsedge; [6],0
same,"Plant response rating, Nutsedge",purple nutsedge; [7],2
same,"Plant response rating, Nutsedge",purple nutsedge; [8],0
same,Nutsedge plant response rating,purple nutsedge; [3],8
same,Nutsedge plant response rating,purple nutsedge; [9],10
COCn1c(=O)on(C(=O)N(c2ccc(F)cc2F)C(C)C)c1=O [Compound 503],"Plant response rating, Bedstraw",bedstraw; Preemergence,5
same,Bedstraw plant response rating,bedstraw; [3],5
same,Bedstraw plant response rating,bedstraw; [4],6
same,Bedstraw plant response rating,bedstraw; [5],10
same,"Plant response rating, Blackgrass",blackgrass; [8],10
same,Blackgrass plant response rating,blackgrass; [3],9
same,Blackgrass plant response rating,blackgrass; [4],9
same,Blackgrass plant response rating,blackgrass; [9],10
same,"Plant response rating, B. signalgrass",surinam grass; [8],6
same,B. signalgrass plant response rating,surinam grass; [3],8
same,B. signalgrass plant response rating,surinam grass; [4],8
same,B. signalgrass plant response rating,surinam grass; [5],9
same,"Plant response rating, Cocklebur",cocklebur; [8],0
same,Cocklebur plant response rating,cocklebur; [3],0
same,Cocklebur plant response rating,cocklebur; [4],0
same,Cocklebur plant response rating,cocklebur; [9],3
same,"Plant response rating, Corn",corn; [8],3
same,Corn plant response rating,corn; [3],5
same,Corn plant response rating,corn; [9],9
same,"Plant response rating, Crabgrass",crabgrass; [8],8
same,Crabgrass plant response rating,crabgrass; [3],8
same,Crabgrass plant response rating,crabgrass; [9],9
same,"Plant response rating, Giant foxtail",giant foxtail; [8],9
same,Giant foxtail plant response rating,giant foxtail; [3],9
same,Giant foxtail plant response rating,giant foxtail; [9],10
same,"Plant response rating, Morningglory",morningglory; [8],2
same,Morningglory plant response rating,morningglory; [3],2
same,Morningglory plant response rating,morningglory; [9],7
same,"Plant response rating, Redroot pigweed",pigweed; [8],8
same,Redroot pigweed plant response rating,pigweed; [3],10
same,Redroot pigweed plant response rating,pigweed; [9],10
same,"Plant response rating, Rape",rape; [8],4
same,Rape plant response rating,rape; [3],8
same,Rape plant response rating,rape; [9],9
same,"Plant response rating, Soybean",soybean; [8],2
same,Soybean plant response rating,soybean; [3],3
same,Soybean plant response rating,soybean; [9],7
same,"Plant response rating, Sugarbeets",sugar beet; [8],2
same,Sugarbeets plant response rating,sugar beet; [3],6
same,Sugarbeets plant response rating,sugar beet; [9],9
same,"Plant response rating, Velvetleaf",velvetleaf; [8],6
same,Velvetleaf plant response rating,velvetleaf; [3],6
same,Velvetleaf plant response rating,velvetleaf; [9],8
same,"Plant response rating, Wheat",wheat; [8],0
same,Wheat plant response rating,wheat; [3],2
same,Wheat plant response rating,wheat; [9],8
same,"Plant response rating, Wild oats",wild oat; [8],6
same,Wild oats plant response rating,wild oat; [3],10
same,Wild oats plant response rating,wild oat; [9],9
same,"Plant response rating, Nutsedge",purple nutsedge; [8],0
same,Nutsedge plant response rating,purple nutsedge; [3],0
same,Nutsedge plant response rating,purple nutsedge; [9],2
